Assay results from ChEMBL document CHEMBL2057107, “Synthesis and evaluation of aplysinopsin analogs as inhibitors of human monoamine oxidase A and B” (Bioorg Med Chem Lett, 2012).

What was measured:
[1] = organism: Homo sapiens; experiment: Selectivity ratio of IC50 for human recombinant MAO-B to IC50 for human recombinant MAO-A
[2] = target: T1, Amine oxidase [flavin-containing] B (Homo sapiens, UniProt P27338); experiment: Inhibition of human recombinant MAO-B using kynuramine as substrate preincubated with compound for 15 mins measured after 20 mins by fluorometric analysis
T1 sequence (P27338 whole entry): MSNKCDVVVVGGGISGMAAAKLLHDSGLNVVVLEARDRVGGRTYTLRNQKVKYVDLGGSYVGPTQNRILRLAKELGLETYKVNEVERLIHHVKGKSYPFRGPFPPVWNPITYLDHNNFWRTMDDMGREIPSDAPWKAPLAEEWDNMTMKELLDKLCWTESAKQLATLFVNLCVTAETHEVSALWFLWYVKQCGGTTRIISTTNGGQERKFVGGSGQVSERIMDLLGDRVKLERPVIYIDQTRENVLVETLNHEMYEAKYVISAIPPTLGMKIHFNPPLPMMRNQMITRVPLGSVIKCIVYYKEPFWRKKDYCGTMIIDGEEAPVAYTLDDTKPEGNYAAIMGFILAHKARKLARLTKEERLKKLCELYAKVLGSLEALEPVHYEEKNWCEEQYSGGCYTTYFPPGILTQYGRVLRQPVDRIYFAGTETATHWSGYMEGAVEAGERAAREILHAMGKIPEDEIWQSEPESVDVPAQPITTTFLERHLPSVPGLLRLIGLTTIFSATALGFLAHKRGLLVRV

[3] = target: T2, Amine oxidase [flavin-containing] A (Homo sapiens, UniProt P21397); experiment: Inhibition of human recombinant MAO-A using kynuramine as substrate preincubated with compound for 15 mins measured after 20 mins by fluorometric analysis
T2 sequence (P21397 whole entry): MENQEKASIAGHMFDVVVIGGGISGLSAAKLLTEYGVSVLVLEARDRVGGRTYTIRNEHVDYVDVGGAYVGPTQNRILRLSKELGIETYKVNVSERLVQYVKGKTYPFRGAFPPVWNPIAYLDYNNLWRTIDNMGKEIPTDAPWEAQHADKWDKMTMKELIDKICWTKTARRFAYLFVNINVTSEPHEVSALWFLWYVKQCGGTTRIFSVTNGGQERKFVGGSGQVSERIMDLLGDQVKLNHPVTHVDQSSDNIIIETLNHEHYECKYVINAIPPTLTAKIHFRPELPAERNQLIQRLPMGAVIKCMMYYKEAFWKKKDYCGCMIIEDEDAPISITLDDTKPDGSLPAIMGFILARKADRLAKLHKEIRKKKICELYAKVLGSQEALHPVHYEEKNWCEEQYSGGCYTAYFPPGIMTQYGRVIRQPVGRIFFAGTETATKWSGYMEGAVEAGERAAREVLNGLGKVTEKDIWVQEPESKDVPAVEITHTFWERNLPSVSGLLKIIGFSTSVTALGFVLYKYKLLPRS

O=C1NC(=S)N/C1=C\c1c[nH]c2cccc(Br)c12
Ratio IC50 [1]: 1.68
IC50 [2]: 0.45 µM
IC50 [3]: 0.267 µM

C/N=C1/N/C(=C\c2c[nH]c3ccc(Br)cc23)C(=O)N1C
Ratio IC50 [1]: 5.16
IC50 [2]: 16.8 µM
IC50 [3]: 3.25 µM

C/N=C1\N(C)C(=O)/C(=C\c2c[nH]c3cccc(Br)c23)N1C
Ratio IC50 [1]: 8.37
IC50 [2]: 5.22 µM
IC50 [3]: 0.623 µM

C/N=C1/N/C(=C\c2c[nH]c3ccccc23)C(=O)N1C
Ratio IC50 [1]: 5.24
IC50 [2]: 30.5 µM
IC50 [3]: 5.82 µM

CN1C(=N)N/C(=C\c2c[nH]c3ccccc23)C1=O
Ratio IC50 [1]: 17.5
IC50 [2]: 34.3 µM
IC50 [3]: 1.97 µM

N=C1NC(=O)/C(=C/c2c[nH]c3ccc(Br)cc23)N1
Ratio IC50 [1]: 1.93
IC50 [2]: 11.3 µM
IC50 [3]: 5.87 µM

CN1C(=N)NC(=O)/C1=C\c1c[nH]c2c(Br)cccc12
Ratio IC50 [1]: 5.62
IC50 [2]: 34.3 µM
IC50 [3]: 6.11 µM

CN1C(=N)N(C)/C(=C/c2c[nH]c3cccc(Br)c23)C1=O
Ratio IC50 [1]: 24.8
IC50 [2]: 51.2 µM
IC50 [3]: 2.07 µM

CSC1=N/C(=C\c2c[nH]c3ccccc23)C(=O)N1
Ratio IC50 [1]: 21.3
IC50 [2]: 59.3 µM
IC50 [3]: 2.78 µM

CSC1=NC(=O)/C(=C/c2c[nH]c3cc(Br)ccc23)N1
Ratio IC50 [1]: 2.65
IC50 [2]: 1.42 µM
IC50 [3]: 0.533 µM

C/N=C1/N/C(=C\c2c[nH]c3c(Br)cccc23)C(=O)N1C
Ratio IC50 [1]: 3.94
IC50 [2]: 4.26 µM
IC50 [3]: 1.08 µM

C/N=C1\NC(=O)/C(=C/c2c[nH]c3cc(Br)ccc23)N1
Ratio IC50 [1]: 4.66
IC50 [2]: 20.7 µM
IC50 [3]: 4.43 µM

CSC1=NC(=O)/C(=C/c2c[nH]c3c(Br)cccc23)N1
Ratio IC50 [1]: 3.88
IC50 [2]: 2.43 µM
IC50 [3]: 0.627 µM

N=C1NC(=O)/C(=C/c2c[nH]c3cccc(Br)c23)N1
Ratio IC50 [1]: 11.5
IC50 [2]: 28.3 µM
IC50 [3]: 2.47 µM

C/N=C1\NC(=O)/C(=C\c2c[nH]c3cccc(Br)c23)N1C
Ratio IC50 [1]: 10.2
IC50 [2]: 26.3 µM
IC50 [3]: 2.58 µM

CSC1=NC(=O)/C(=C/c2c[nH]c3ccc(Br)cc23)N1
Ratio IC50 [1]: 1.22
IC50 [2]: 8.75 µM
IC50 [3]: 7.13 µM

C/N=C1\N(C)C(=O)/C(=C\c2c[nH]c3ccccc23)N1C [METHYLAPLYSINOPSIN]
Ratio IC50 [1]: 92.3
IC50 [2]: 9.02 µM
IC50 [3]: 0.098 µM

C/N=C1\N(C)C(=O)/C(=C\c2c[nH]c3ccc(Br)cc23)N1C
Ratio IC50 [1]: 4.38
IC50 [2]: 0.37 µM
IC50 [3]: 0.085 µM

C/N=C1/N/C(=C\c2c[nH]c3cc(Br)ccc23)C(=O)N1C
Ratio IC50 [1]: 22.9
IC50 [2]: 25.7 µM
IC50 [3]: 1.12 µM

C/N=C1\NC(=O)/C(=C/c2c[nH]c3c(Br)cccc23)N1
Ratio IC50 [1]: 6.66
IC50 [2]: 26 µM
IC50 [3]: 3.9 µM

C/N=C1/N/C(=C\c2c[nH]c3cccc(Br)c23)C(=O)N1C
Ratio IC50 [1]: 4.9
IC50 [2]: 26.8 µM
IC50 [3]: 5.48 µM

N=C1NC(=O)/C(=C/c2c[nH]c3cc(Br)ccc23)N1
Ratio IC50 [1]: 6.88
IC50 [2]: 25.3 µM
IC50 [3]: 3.68 µM

CN1C(=N)N(C)/C(=C/c2c[nH]c3c(Br)cccc23)C1=O
Ratio IC50 [1]: 60.5
IC50 [2]: 3.12 µM
IC50 [3]: 0.052 µM

N=C1NC(=O)/C(=C/c2c[nH]c3ccccc23)N1
Ratio IC50 [1]: 2.59
IC50 [2]: 33 µM
IC50 [3]: 12.8 µM

O=C1NC(=S)N/C1=C\c1c[nH]c2ccccc12
Ratio IC50 [1]: 1.69
IC50 [2]: 24.3 µM
IC50 [3]: 14.3 µM

CN1C(=N)NC(=O)/C1=C\c1c[nH]c2ccccc12
Ratio IC50 [1]: 3.55
IC50 [2]: 43.2 µM
IC50 [3]: 12.2 µM

CN1C(=N)N(C)/C(=C/c2c[nH]c3ccccc23)C1=O [APLYSINOPSIN]
Ratio IC50 [1]: 290
IC50 [2]: 10 µM
IC50 [3]: 0.035 µM

CN1C(=N)NC(=O)/C1=C\c1c[nH]c2cccc(Br)c12
IC50 [2]: > 100 µM
IC50 [3]: 26.2 µM

C/N=C1\NC(=O)/C(=C\c2c[nH]c3c(Br)cccc23)N1C
Ratio IC50 [1]: 6.75
IC50 [2]: 12.8 µM
IC50 [3]: 1.9 µM

N=C1NC(=O)/C(=C/c2c[nH]c3c(Br)cccc23)N1
Ratio IC50 [1]: 5.04
IC50 [2]: 27.8 µM
IC50 [3]: 5.52 µM

CN1C(=N)N(C)/C(=C/c2c[nH]c3ccc(Br)cc23)C1=O
Ratio IC50 [1]: 11.4
IC50 [2]: 2.7 µM
IC50 [3]: 0.236 µM

CSC1=NC(=O)/C(=C/c2c[nH]c3cccc(Br)c23)N1
Ratio IC50 [1]: 5.51
IC50 [2]: 3.73 µM
IC50 [3]: 0.677 µM

O=C1NC(=S)N/C1=C\c1c[nH]c2cc(Br)ccc12
Ratio IC50 [1]: 1.67
IC50 [2]: 2.57 µM
IC50 [3]: 1.53 µM

O=C1NC(=S)N/C1=C\c1c[nH]c2ccc(Br)cc12
Ratio IC50 [1]: 2.08
IC50 [2]: 2.57 µM
IC50 [3]: 1.23 µM

C/N=C1\NC(=O)/C(=C/c2c[nH]c3ccccc23)N1
Ratio IC50 [1]: 0.45
IC50 [2]: 6 µM
IC50 [3]: 13.3 µM

C/N=C1\NC(=O)/C(=C/c2c[nH]c3ccc(Br)cc23)N1
Ratio IC50 [1]: 1.66
IC50 [2]: 2 µM
IC50 [3]: 1.2 µM

C/N=C1\NC(=O)/C(=C\c2c[nH]c3ccccc23)N1C [ISOPLYSIN A]
Ratio IC50 [1]: 11
IC50 [2]: 33.8 µM
IC50 [3]: 3.08 µM

CN1C(=N)NC(=O)/C1=C\c1c[nH]c2cc(Br)ccc12
Ratio IC50 [1]: 5.87
IC50 [2]: 35.7 µM
IC50 [3]: 6.07 µM

CN1C(=N)N/C(=C\c2c[nH]c3cccc(Br)c23)C1=O
Ratio IC50 [1]: 24.4
IC50 [2]: 37 µM
IC50 [3]: 1.52 µM

C/N=C1\N(C)C(=O)/C(=C\c2c[nH]c3c(Br)cccc23)N1C
Ratio IC50 [1]: 18.4
IC50 [2]: 2.82 µM
IC50 [3]: 0.153 µM

CN1C(=N)N(C)/C(=C/c2c[nH]c3cc(Br)ccc23)C1=O
IC50 [2]: 0.447 µM
IC50 [3]: 0.0056 µM

CN1C(=N)N/C(=C\c2c[nH]c3ccc(Br)cc23)C1=O
Ratio IC50 [1]: 13.2
IC50 [2]: 4.3 µM
IC50 [3]: 0.327 µM

C/N=C1\NC(=O)/C(=C\c2c[nH]c3ccc(Br)cc23)N1C
Ratio IC50 [1]: 44.2
IC50 [2]: 11.6 µM
IC50 [3]: 0.263 µM

CN1C(=N)N/C(=C\c2c[nH]c3cc(Br)ccc23)C1=O
Ratio IC50 [1]: 23
IC50 [2]: 3.8 µM
IC50 [3]: 0.165 µM

CN1C(=N)N/C(=C\c2c[nH]c3c(Br)cccc23)C1=O
Ratio IC50 [1]: 11.9
IC50 [2]: 14.3 µM
IC50 [3]: 1.2 µM

C/N=C1\NC(=O)/C(=C/c2c[nH]c3cccc(Br)c23)N1
Ratio IC50 [1]: 3.9
IC50 [2]: 7.03 µM
IC50 [3]: 1.8 µM

C/N=C1\N(C)C(=O)/C(=C\c2c[nH]c3cc(Br)ccc23)N1C
Ratio IC50 [1]: 11.2
IC50 [2]: 0.207 µM
IC50 [3]: 0.018 µM

C/N=C1\NC(=O)/C(=C\c2c[nH]c3cc(Br)ccc23)N1C
Ratio IC50 [1]: 92
IC50 [2]: 2.67 µM
IC50 [3]: 0.029 µM

CN1C(=N)NC(=O)/C1=C\c1c[nH]c2ccc(Br)cc12
Ratio IC50 [1]: 3.06
IC50 [2]: 24.5 µM
IC50 [3]: 8 µM

O=C1NC(=S)N/C1=C\c1c[nH]c2c(Br)cccc12
Ratio IC50 [1]: 2.27
IC50 [2]: 1.24 µM
IC50 [3]: 0.543 µM
